Usually GI50 stands for the concentration giving 50% growth inhibition.

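Results reflect a 48-hour exposure of cells in 96-well plates to compound at five concentrations. At the GI50, growth is halved.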 Calls of active or inactive are those of the source. No stated cut-off is given here; in the data, active = GI50 up to about 1.1 µM and inactive = higher.

Test systems include UACC-62; Malme-3M; A549; SW-620; HCT-116; NCI-H522; ACHN; NCI-H23; OVCAR-5; HOP-62; SF-539; UO-31; CAKI-1; SNB-75; M19-MEL; UACC-257; Hs-578T; NCI/ADR-RES; DU-145.
Assay in all cases: DTP human tumour cell line panel, 48 h

Turning to `CCOC(=O)NC(=O)c1cn(CC(=O)NCC(=O)NCC(=O)NCCCN2CCN(CCCNC(=O)CNC(=O)CNC(=O)Cn3cc(C(=O)NC(=O)OCC)c(=O)[nH]c3=O)CC2)c(=O)[nH]c1=O`, the GI50 with UACC-62, in the test with Malme-3M, in the test with A549, with SW-620, in the test on HCT-116 and with NCI-H522 was > 100 µM (inactive) throughout. Besides, the GI50 in the test with ACHN, in the test with NCI-H23, in the test with OVCAR-5, in the test with HOP-62, in the test on SF-539 and in the test with UO-31 was > 100 µM (inactive) each time. For the same molecule, the GI50 with CAKI-1, in the test with SNB-75, with M19-MEL and in the test on UACC-257 was > 100 µM (inactive) throughout.

Turning to `Cc1cc(O)nc(NNC(C#N)c2c(O)ccc3ccccc23)n1` (stereo unspecified), the GI50 with UACC-62 was 2.87 µM (inactive); in the test with Malme-3M it was 7.55 µM (inactive); in the test on A549 it was 2.9 µM (inactive); with SW-620, 4.56 µM (inactive); in the test on HCT-116 it was 2.43 µM (inactive); in the test on NCI-H522, 8.89 µM (inactive). The GI50 with ACHN was 1.8 µM (inactive); in the test on NCI-H23 it was 3.56 µM (inactive); with OVCAR-5 it was 16.7 µM (inactive); in the test on HOP-62 it was 6.5 µM (inactive); with SF-539 it was 3.85 µM (inactive); in the test with UO-31, 1.73 µM (inactive). For the same molecule, the GI50 is 3.18 µM (inactive) in the test on CAKI-1, 15 µM (inactive) with SNB-75, 4.68 µM (inactive) with M19-MEL and 3.64 µM (inactive) with UACC-257.

Consider `COc1ccc2c(=O)c([Se]c3coc4cc(OC)ccc4c3=O)coc2c1`, for which the GI50 with UACC-62 was > 100 µM (inactive); in the test with Malme-3M it was 34.3 µM (inactive); in the test on A549 it was 32.6 µM (inactive); in the test with SW-620 it was > 100 µM (inactive); in the test with HCT-116 it was 19.8 µM (inactive); in the test with NCI-H522, > 100 µM (inactive). The GI50 in the test with ACHN is 72.1 µM (inactive); in the test with NCI-H23, 34.9 µM (inactive); in the test on OVCAR-5, > 100 µM (inactive); in the test with HOP-62, > 100 µM (inactive); with SF-539 it was 69 µM (inactive); in the test with UO-31, 57.4 µM (inactive). Moreover, the GI50 in the test on CAKI-1 was > 100 µM (inactive); with SNB-75, 20.8 µM (inactive); in the test on M19-MEL, 28.3 µM (inactive); in the test with UACC-257, > 100 µM (inactive).

For the molecule `COc1cc2c(cc1OC)C1(c3ccccc3)ON=C(c3ccccc3)N1CS2` (stereo unspecified), the GI50 in the test on UACC-62 was 45.8 µM (inactive); in the test with Malme-3M, > 100 µM (inactive); with A549, > 100 µM (inactive); in the test with SW-620 it was > 100 µM (inactive); in the test with HCT-116 it was 28.7 µM (inactive); in the test with NCI-H522 it was > 100 µM (inactive). Besides, the GI50 with ACHN, with NCI-H23, with OVCAR-5, with HOP-62, in the test with SF-539 and with UO-31 was > 100 µM (inactive) in each case. The GI50 in the test with CAKI-1, in the test with SNB-75, with M19-MEL and in the test on UACC-257 was > 100 µM (inactive) each time.

For `CCOC(=O)C1=C(Nc2ccccc2)SC/C1=N\NC(=O)Cc1ccccc1`, the GI50 with UACC-62, in the test with Malme-3M, in the test with A549, in the test on SW-620, with HCT-116 and with NCI-H522 was > 100 µM (inactive) in each case. Moreover, the GI50 with ACHN, with NCI-H23, in the test on OVCAR-5, in the test with HOP-62, in the test on SF-539 and with UO-31 was > 100 µM (inactive) in each case. The GI50 in the test with CAKI-1, in the test on SNB-75, in the test on M19-MEL and in the test with UACC-257 was > 100 µM (inactive) each time.

`COc1ccc(/C=C\c2cc(OC)c(OC)c(OC)c2)cc1OC(=O)NCCN(C)C`: the GI50 in the test on UACC-62 is < 0.0001 µM (active); in the test with Malme-3M, 0.00284 µM (active); in the test with A549, 0.00187 µM (active); with SW-620 it was < 0.0001 µM (active); in the test on Hs-578T, 0.000137 µM (active); in the test on HCT-116, < 0.0001 µM (active). In addition, the GI50 with NCI-H522 is 0.000119 µM (active); with ACHN it was 0.000659 µM (active); in the test with NCI-H23, 0.000121 µM (active); in the test on OVCAR-5, 0.00764 µM (active); in the test on NCI/ADR-RES, < 0.0001 µM (active); in the test on HOP-62, 0.000151 µM (active). Also, the GI50 with SF-539 was 0.000133 µM (active); in the test on UO-31, 0.00411 µM (active); in the test with CAKI-1, 0.0386 µM (active); with SNB-75 it was 0.000215 µM (active); in the test on M19-MEL, < 0.0001 µM (active); with UACC-257, 0.00839 µM (active). For the same molecule, the GI50 with DU-145 was 0.000307 µM (active).

As for `CCCCCCCCCCCC(=O)OCC1OC(OC)C(NC(=O)N(CCCl)N=O)C(O)C1O` (stereo unspecified), the GI50 in the test on UACC-62 is 1.33 µM (inactive); in the test on Malme-3M, 12.2 µM (inactive); in the test on A549, 12.5 µM (inactive); in the test with SW-620, 4.27 µM (inactive); with HCT-116, 13.2 µM (inactive); in the test on NCI-H522, 10.3 µM (inactive). In addition, the GI50 is 10.6 µM (inactive) with ACHN; > 10 µM (inactive) in the test on NCI-H23; 20.4 µM (inactive) with OVCAR-5; 18.7 µM (inactive) with HOP-62; 2.96 µM (inactive) in the test with SF-539; 16.7 µM (inactive) with UO-31. Further, the GI50 in the test on CAKI-1 is > 100 µM (inactive); in the test on SNB-75, 14.1 µM (inactive); with M19-MEL, 38.8 µM (inactive); with UACC-257 it was 14.3 µM (inactive).

Regarding `COc1ccc(CN(O)C2C(CO)OC(n3cc(I)c(=O)[nH]c3=O)C2O)cc1` (stereo unspecified), the GI50 in the test on UACC-62, in the test on Malme-3M, in the test on A549, in the test on SW-620, in the test on HCT-116 and with NCI-H522 was > 100 µM (inactive) each time. Besides, the GI50 in the test on ACHN, with NCI-H23, with OVCAR-5, in the test with HOP-62, in the test on SF-539 and with UO-31 was > 100 µM (inactive) each time. For the same molecule, the GI50 in the test on CAKI-1, with SNB-75, in the test with M19-MEL and in the test with UACC-257 was > 100 µM (inactive) throughout.

Source of the values: ChEMBL document CHEMBL1201862, “PubChem BioAssay data set” (2004).
